Results as given in patent US6620828B2, “Thiazole compounds and pharmaceutical compositions for inhibiting protein kinases and methods for their use” (Agouron Pharmaceuticals, Inc., priority 1999, dated 2003).

What was measured:
Format in all cases: biochemical
CDK4/Cyclin D3 complex = biological target: T1, CDK4/Cyclin D3 complex (Homo sapiens, UniProt P11802); assay: CDK4/Cyclin D assay; settings: 1.0 μM; combinatorial library compounds
T1 construct: made in house; host or cells: insect cells co-infected with baculovirus vectors
T1 sequence (P11802 whole entry): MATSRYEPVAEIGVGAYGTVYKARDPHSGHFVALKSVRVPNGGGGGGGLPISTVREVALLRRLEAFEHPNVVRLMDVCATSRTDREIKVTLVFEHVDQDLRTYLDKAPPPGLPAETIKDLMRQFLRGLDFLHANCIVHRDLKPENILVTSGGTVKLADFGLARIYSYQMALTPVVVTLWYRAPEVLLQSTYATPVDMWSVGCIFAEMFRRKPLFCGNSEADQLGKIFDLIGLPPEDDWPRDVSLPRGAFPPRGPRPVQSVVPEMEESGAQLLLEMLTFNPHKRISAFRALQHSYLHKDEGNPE
T1 sequence (P30281 whole entry partner): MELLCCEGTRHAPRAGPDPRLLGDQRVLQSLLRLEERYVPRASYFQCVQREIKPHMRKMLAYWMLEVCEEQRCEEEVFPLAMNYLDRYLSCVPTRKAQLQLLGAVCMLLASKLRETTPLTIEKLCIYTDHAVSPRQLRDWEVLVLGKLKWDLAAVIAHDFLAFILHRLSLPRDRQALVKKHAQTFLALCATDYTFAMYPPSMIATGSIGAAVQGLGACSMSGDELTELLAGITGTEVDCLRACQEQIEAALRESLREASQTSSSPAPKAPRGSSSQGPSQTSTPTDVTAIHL
Method in brief: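 Insect-cell-expressed CDK4/cyclin D3 (50 nM) phosphorylating His-tagged Rb fragment (residues 386-928) with 25 μM [^32P]ATP in HEPES pH 7.4, MgCl2, 2% DMSO; 20 min at 30 °C, EDTA stop. Filter-captured 32P by phosphorimager; apparent Ki from competitive or tight-binding inhibition fits.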

FL-CHK1 = biological target: T2, FL-CHK1 (Homo sapiens, UniProt O14757); assay: CHK1 assay; settings: 20 μM; combinatorial library compounds
T2 construct: C-terminally His-tagged full-length human CHK1 (FL-CHK1); 6xHis (C); made in house; host or cells: baculovirus/insect cells
T2 sequence (O14757 1-476): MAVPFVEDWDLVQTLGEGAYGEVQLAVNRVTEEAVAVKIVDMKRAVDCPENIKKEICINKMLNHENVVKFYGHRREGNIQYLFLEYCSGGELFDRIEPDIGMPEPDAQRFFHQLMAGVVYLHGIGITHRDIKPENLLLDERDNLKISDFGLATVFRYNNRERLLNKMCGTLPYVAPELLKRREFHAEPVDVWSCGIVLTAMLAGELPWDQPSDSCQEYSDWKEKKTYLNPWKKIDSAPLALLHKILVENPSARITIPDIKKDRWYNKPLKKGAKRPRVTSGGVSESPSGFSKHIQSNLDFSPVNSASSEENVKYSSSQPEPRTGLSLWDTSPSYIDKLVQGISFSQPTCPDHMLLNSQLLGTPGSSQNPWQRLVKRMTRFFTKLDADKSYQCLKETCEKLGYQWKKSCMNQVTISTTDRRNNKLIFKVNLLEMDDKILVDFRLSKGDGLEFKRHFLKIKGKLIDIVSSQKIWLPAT
Method in brief: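 Full-length human CHK1 with C-terminal 6×His tag, made in baculovirus/insect cells, 10 nM, phosphorylating 0.125 mM Syntide-2 with 0.15 mM ATP in 50 mM Tris pH 7.5, 25 mM MgCl2, 400 mM NaCl. PK/LDH-coupled NADH oxidation read at 340 nm. Ki from initial rates over varied compound concentrations.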

CDK2/Cyclin A complex = CDK2/Cyclin A complex (Homo sapiens, UniProt P24941); assay: CDK2/Cyclin A assay; settings: 1.0 μM; combinatorial library compounds
Method in brief: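 Radiometric assay: 150 nM CDK2/cyclin A (insect-cell CDK2, truncated cyclin A) phosphorylates His-tagged Rb fragment (residues 386-928) with 25 μM ATP plus [32P]ATP, pH 7.4 HEPES, 2% DMSO, 30 °C for 20 min. Filter-captured product counted by phosphorimager; apparent Ki from competitive or tight-binding inhibition fits.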

[1] = biological target: T3, phosphorylated VEGF-R2Δ50 (FLVK-P) (Homo sapiens, UniProt P35968, DEL940-989/E990V); assay: VEGF-R2 coupled spectrophotometric (FLVK-P) assay; settings: combinatorial library compounds; for inhibition at 20 µM: read-out: VEGF % inhibition at 20 μM, 20 μM
T3 construct: VEGF-R2Δ50 contains residues 806-939 and 990-1171; made in house; host or cells: baculovirus/insect cells
T3 sequence (P35968 with tags, fused parts or gaps DEL940-989/E990V limits assumed): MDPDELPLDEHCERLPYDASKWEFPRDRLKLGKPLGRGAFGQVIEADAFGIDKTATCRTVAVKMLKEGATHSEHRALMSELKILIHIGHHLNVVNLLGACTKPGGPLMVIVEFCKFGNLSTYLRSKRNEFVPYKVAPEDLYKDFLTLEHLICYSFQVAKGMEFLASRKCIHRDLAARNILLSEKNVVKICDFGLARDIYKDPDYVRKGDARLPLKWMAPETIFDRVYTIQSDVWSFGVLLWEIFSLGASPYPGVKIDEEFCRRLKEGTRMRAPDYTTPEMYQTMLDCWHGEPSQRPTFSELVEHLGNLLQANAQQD
Method in brief: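 Baculovirus-expressed human VEGF-R2Δ50 (residues 806-939/990-1171, E990V) was autophosphorylated with 3 mM ATP, 40 mM MgCl2 for 2 h at 4° C. ADP formation was coupled via PK/LDH to NADH oxidation, read at 340 nm, with 5.1 mM poly(E4Y1), 1 mM ATP, 25 mM MgCl2, Hepes pH 7.5. Ki came from activity across compound concentrations.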

| inhibition at 1 µM (CDK4/Cyclin D3 complex) | inhibition at 20 µM (FL-CHK1) | inhibition at 1 µM (CDK2/Cyclin A complex) | inhibition at 20 µM [1] | CDK4 % Inhibition at 1.0 μM (CDK4/Cyclin D3 complex) | CDK2 % Inhibition at 1.0 μM (CDK2/Cyclin A complex) | VEGF % inhibition at 20 μM ([1]; 20 μM) | SMILES |
| --- | --- | --- | --- | --- | --- | --- | --- |
| 15.2% | 16.6% | 11.7% | 2% |  |  |  | Cc1cc(-c2csc(-c3sc(Nc4ccc(N(C)C)cc4)nc3N)n2)ccc1Cl |
| 76.1% | 26.9% | 17.3% | 19% |  |  |  | CN(C)c1ccc(Nc2nc(N)c(-c3nc(-c4ccc(Cl)cc4Cl)cs3)s2)cc1 |
| 59.8% | 8.1% | 8.3% | 25% |  |  |  | Cc1onc(-c2ccccc2)c1-c1csc(-c2sc(Nc3ccc(N(C)C)cc3)nc2N)n1 |
| 56.5% | 40.8% | 5% | 16% |  |  |  | CN(C)c1ccc(Nc2nc(N)c(-c3nc(-c4ccc5c(c4)OCCO5)cs3)s2)cc1 |
| 49.4% | 5.5% | 8.7% | -4% |  |  |  | CN(C)c1ccc(Nc2nc(N)c(-c3nc(-c4ccc(OC(=O)c5ccccc5)cc4)cs3)s2)cc1 |
| 52.4% | 27.2% | 29.8% | 24% |  |  |  | Cc1cc(-c2csc(-c3sc(Nc4ccc(N(C)C)cc4)nc3N)n2)cc(C)c1O |
| 23.3% | -0.9% | 16.1% | 21% |  |  |  | Cc1ccc(-c2csc(-c3sc(Nc4ccc(N(C)C)cc4)nc3N)n2)c(C)c1 |
| 69.4% | 38.1% | 6.3% | 28% |  |  |  | CN(C)c1ccc(Nc2nc(N)c(-c3nc(-c4ccc(CC(=O)O)s4)cs3)s2)cc1 |
| 57.5% | 23.3% | 0.6% | 16% |  |  |  | CN(C)c1ccc(Nc2nc(N)c(-c3nc(-c4cccc(OC(=O)c5ccccc5)c4)cs3)s2)cc1 |
| 43.7% | 32.7% | -2.5% | 20% |  |  |  | CN(C)c1ccc(Nc2nc(N)c(-c3nc(-c4ccc5c(c4)CCC(=O)N5)cs3)s2)cc1 |
| 81.8% | 26% | 24.6% | 14% |  |  |  | COc1ccc2nc(-c3ccccc3)c(-c3csc(-c4sc(Nc5ccc(N(C)C)cc5)nc4N)n3)cc2c1 |
| 12.1% | 3.2% | 23.3% | 26% |  |  |  | Cc1c(-c2csc(-c3sc(Nc4ccc(N(C)C)cc4)nc3N)n2)sc2ccccc12 |
| 16% | 18.7% | 18.9% | 21% |  |  |  | COc1ccccc1-c1csc(-c2sc(Nc3ccc(S(N)(=O)=O)cc3)nc2N)n1 [drawing 394] |
|  | 6.9% |  |  | 9.3% | 10.7% | 48% | COc1ccc(-c2csc(-c3sc(Nc4ccc(S(N)(=O)=O)cc4)nc3N)n2)cc1 [drawing 399] |
| -11.3% | 12.3% | 11.2% | -3% |  |  |  | Nc1nc(Nc2ccc(S(N)(=O)=O)cc2)sc1-c1nc(-c2ccc(-c3ccccc3)cc2)cs1 [drawing 404] |

Continued, compound first:

| SMILES | inhibition at 1 µM (CDK4/Cyclin D3 complex) | inhibition at 20 µM (FL-CHK1) | inhibition at 1 µM (CDK2/Cyclin A complex) | inhibition at 20 µM [1] | CDK4 % Inhibition at 1.0 μM (CDK4/Cyclin D3 complex) | CDK2 % Inhibition at 1.0 μM (CDK2/Cyclin A complex) | VEGF % inhibition at 20 μM ([1]; 20 μM) |
| --- | --- | --- | --- | --- | --- | --- | --- |
| CN(C)c1ccc(Nc2nc(N)c(-c3nc(-c4ccc(O)c(O)c4)cs3)s2)cc1 | 53% | 46.5% | 16.8% | 34% |  |  |  |
| CN(C)c1ccc(Nc2nc(N)c(-c3nc(-c4ccc5ccccc5c4)cs3)s2)cc1 | 45.5% | 19.6% | 26.9% | 5% |  |  |  |
| Cc1cc(-c2csc(-c3sc(Nc4ccc(N(C)C)cc4)nc3N)n2)c(C)s1 | 64.1% | 43.9% | 24% | 32% |  |  |  |
| CCOC(=O)c1cc(-c2csc(-c3sc(Nc4ccc(N(C)C)cc4)nc3N)n2)on1 | 33.7% | -4.5% | 13.4% | 9% |  |  |  |
| CN(C)c1ccc(Nc2nc(N)c(-c3nc(-c4ccc([N+](=O)[O-])cc4)cs3)s2)cc1 | 50.4% | 17.8% | 22.1% | 8% |  |  |  |
| CN(C)c1ccc(Nc2nc(N)c(-c3nc(-c4ccc(-c5ccccc5)cc4)cs3)s2)cc1 | -12.6% | 5% | 14.5% | -12% |  |  |  |
| CN(C)c1ccc(Nc2nc(N)c(-c3nc(-c4ccc(C#N)cc4)cs3)s2)cc1 | 36.4% | 8.2% | 14.3% | 11% |  |  |  |
| CN(C)c1ccc(Nc2nc(N)c(-c3nc(-c4ccc(F)cc4)cs3)s2)cc1 | 56% | 41.7% | 34.8% | 41% |  |  |  |
| CN(C)c1ccc(Nc2nc(N)c(-c3nc(-c4ccc[nH]4)cs3)s2)cc1 | 63.6% | 32.5% | 31.7% | 28% |  |  |  |
| CN(C)c1ccc(Nc2nc(N)c(-c3nc(-c4ccc(F)c(F)c4)cs3)s2)cc1 | 8.1% | 4.2% | 3.3% | 8% |  |  |  |
| CN(C)c1ccc(Nc2nc(N)c(-c3nc(-c4cccc([N+](=O)[O-])c4)cs3)s2)cc1 | 27% | 13.8% | 17.1% | 6% |  |  |  |
| CN(C)c1ccc(Nc2nc(N)c(-c3nc(-c4ccc(Cl)c(Cl)c4)cs3)s2)cc1 | -6.5% | 5.1% | 9.2% | 0% |  |  |  |
| CN(C)c1ccc(Nc2nc(N)c(-c3nc(-c4ccc(O)cc4)cs3)s2)cc1 | 66.8% | 47.1% | 26.6% | 46% |  |  |  |
| CN(C)c1ccc(Nc2nc(N)c(-c3nc(-c4c(Cl)c(Cl)nc(Cl)c4Cl)cs3)s2)cc1 | 64.4% | 41.4% | 33.3% | 35% |  |  |  |
| COc1cc(OC)c(-c2csc(-c3sc(Nc4ccc(N(C)C)cc4)nc3N)n2)c(O)c1Cl | 69.3% | 41.1% | 24.1% | 36% |  |  |  |
| CN(C)c1ccc(Nc2nc(N)c(-c3nc(-c4ccc5oc6ccccc6c5c4)cs3)s2)cc1 | 63.5% | 29.3% | 38.3% | 27% |  |  |  |
| CN(C)c1ccc(Nc2nc(N)c(-c3nc(-c4ccc5c(c4)C(C)(C)CCC5(C)C)cs3)s2)cc1 | 74.4% | 32.9% | 3.1% | 18% |  |  |  |
| CN(C)c1ccc(Nc2nc(N)c(-c3nc(-c4ccc(C(F)(F)F)cc4)cs3)s2)cc1 | 60.3% | 13.1% | 33.4% | 5% |  |  |  |
| CN(C)c1ccc(Nc2nc(N)c(-c3nc(-c4ccccc4OC(=O)c4ccccc4)cs3)s2)cc1 | 48.5% | 9.8% | 27.1% | 23% |  |  |  |
| CCc1cc2c(cc1-c1csc(-c3sc(Nc4ccc(N(C)C)cc4)nc3N)n1)C(C)(C)CCC2(C)C | 70.9% | 18.8% | 20.5% | 17% |  |  |  |
| CN(C)c1ccc(Nc2nc(N)c(-c3nc(-c4cc(C(C)(C)C)c(O)c(C(C)(C)C)c4)cs3)s2)cc1 | 73.2% | 37.1% | 18.3% | 6% |  |  |  |
| Cc1ccc(-c2csc(-c3sc(Nc4ccc(S(N)(=O)=O)cc4)nc3N)n2)cc1 [drawing 395] | -9.6% | -2.1% | 20.5% | 33% |  |  |  |
